Measurements taken from patent publication US11970463B2, “Compounds and their use” (ASTRAZENECA AB, priority 2021, dated 2024).
≈ marks a conversion by molar mass, not a printed value. Read-outs that look alike come from different tables or passages of the source.

Experiments:
Human NLRP3 [1] = target: T1, Human NLRP3 (Homo sapiens (Human), UniProt Q96P20)
[2] = Solubility (Test F), McIlvaine buffer pH 6.5; assay type: physicochemical; settings: McIlvaine buffer pH 6.5, 25° C., 24 to 72 h, theoretical maximum 200 μM; for solubility: disodium hydrogenphosphate-citric acid (McIlvaine) buffer, 25 °C, pH 6.5, aqueous buffer, thermodynamic from solid
Human NLRP3 [3] = target: T1, Human NLRP3; experiment: Human NLRP3 speck formation assay (Test A), nigericin triggered ASC-speck formation in ASC-GFP reporter monocytes
Solubility (Test E) = assay type: physicochemical
[4] = Test C IC50, IL-1β release, THP-1 cells, LPS 2 μg/mL 24 h, BzATP 1 mM

T1 sequence (Q96P20 whole entry): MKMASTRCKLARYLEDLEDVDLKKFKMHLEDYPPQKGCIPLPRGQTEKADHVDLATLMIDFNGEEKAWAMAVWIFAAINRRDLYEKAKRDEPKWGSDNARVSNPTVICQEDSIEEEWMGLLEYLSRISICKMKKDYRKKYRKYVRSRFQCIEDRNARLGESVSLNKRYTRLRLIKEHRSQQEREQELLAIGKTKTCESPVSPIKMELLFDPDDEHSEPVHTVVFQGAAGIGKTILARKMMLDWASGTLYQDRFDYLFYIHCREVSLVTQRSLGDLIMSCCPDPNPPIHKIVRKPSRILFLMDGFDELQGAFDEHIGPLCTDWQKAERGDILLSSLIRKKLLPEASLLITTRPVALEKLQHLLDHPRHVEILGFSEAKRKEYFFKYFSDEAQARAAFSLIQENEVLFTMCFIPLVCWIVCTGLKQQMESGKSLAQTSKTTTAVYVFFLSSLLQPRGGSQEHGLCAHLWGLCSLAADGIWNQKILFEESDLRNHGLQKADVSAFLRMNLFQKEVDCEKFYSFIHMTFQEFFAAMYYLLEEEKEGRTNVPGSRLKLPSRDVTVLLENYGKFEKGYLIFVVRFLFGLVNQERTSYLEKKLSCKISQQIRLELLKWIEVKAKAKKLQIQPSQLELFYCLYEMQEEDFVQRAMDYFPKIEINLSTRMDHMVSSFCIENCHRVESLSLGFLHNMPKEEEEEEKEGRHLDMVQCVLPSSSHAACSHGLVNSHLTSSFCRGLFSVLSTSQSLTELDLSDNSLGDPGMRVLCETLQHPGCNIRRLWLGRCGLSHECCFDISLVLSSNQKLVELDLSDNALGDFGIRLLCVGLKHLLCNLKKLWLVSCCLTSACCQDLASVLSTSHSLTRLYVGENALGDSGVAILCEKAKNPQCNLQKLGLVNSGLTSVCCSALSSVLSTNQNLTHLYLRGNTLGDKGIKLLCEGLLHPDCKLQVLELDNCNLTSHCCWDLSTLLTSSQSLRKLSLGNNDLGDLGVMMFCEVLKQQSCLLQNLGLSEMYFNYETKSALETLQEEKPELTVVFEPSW

Row | Compound | IC50 (Human NLRP3 [1]; [4]) [nM] | solubility [2] [µg/mL] | other results
1 | OC[C@@H](O)CNc1nnc(-c2ccc(Cl)c(F)c2O)c2ccccc12 [Example 2, (2S)-3-[[4-(4-chloro-3-fluoro-2-hydroxy-phenyl)phthalazin-1-yl]amino]propane-1,2-diol] | 165 | 24.6 (≈ 67.6 µM) | 
2 | Oc1cccc(F)c1-c1nnc(N[C@@H]2CC[C@H](O)C2)c2ccncc12 [Example 87, 3-fluoro-2-(1-(((1R,3S)-3-hydroxycyclopentyl)amino)pyrido[3,4-d]pyridazin-4-yl)phenol] |  |  | EC50 (Human NLRP3 [3]): 6150 nM; solubility (Solubility (Test E)): 25 µM (≈ 8.51 µg/mL)
3 | C[C@]1(O)C[C@@H](Nc2nnc(-c3c(O)cccc3F)c3ccccc23)C1 [Example 36, 3-fluoro-2-(4-(((1s,3s)-3-hydroxy-3-methylcyclobutyl)amino)phthalazin-1-yl)phenol] |  | 43 (≈ 127 µM) | IC50 (Human NLRP3 [1]): 976 nM
4 | Oc1cccc(F)c1-c1nnc(N[C@@H]2CCC[C@H](O)C2)c2cnccc12 [Example 47, 3-fluoro-2-[4-[[(1R,3S)-3-hydroxycyclohexyl]amino]pyrido[3,4-d]pyridazin-1-yl]phenol] | 68 | > 70.9 | 
5 | Oc1cccc(F)c1-c1nnc(N[C@@H]2CC[C@@H](O)C2)c2ccncc12 [Example 86, 3-fluoro-2-(1-(((1R,3R)-3-hydroxycyclopentyl)amino)pyrido[3,4-d]pyridazin-4-yl)phenol] |  |  | EC50 (Human NLRP3 [3]): 6150 nM
6 | OC[C@@H](O)CNc1nnc(-c2c(O)cccc2Cl)c2ccccc12 [Example 10, (2S)-3-[[4-(2-chloro-6-hydroxy-phenyl)phthalazin-1-yl]amino]propane-1,2-diol] | 434 | 62.9 (≈ 182 µM) | 
7 | Oc1cc(C(F)(F)F)ccc1-c1nnc(N[C@H]2CC[C@@H](O)C2)c2ccccc12 (single isomer, unassigned) [Example 34] | 18 | 9.3 (≈ 23.9 µM) | 
8 | CS(=O)(=O)c1ccc(-c2nnc(N[C@@H]3CC[C@@H](O)C3)c3ccccc23)c(O)c1 [Example 18, 2-[4-[[(1R,3R)-3-hydroxycyclopentyl]amino]phthalazin-1-yl]-5-methylsulfonyl-phenol] | 738 | > 79.9 | 
9 | Cc1ccc(O)c(-c2nnc(NC[C@H](O)CO)c3ccccc23)c1 [Example 13, (2S)-3-[[4-(2-hydroxy-5-methyl-phenyl)phthalazin-1-yl]amino]propane-1,2-diol] | > 10000 | > 65.1 | 
10 | Oc1cc(F)ccc1-c1nnc(N[C@@H]2CC[C@@H](O)C2)c2cnccc12 [Example 85, 5-fluoro-2-(4-(((1R,3R)-3-hydroxycyclopentyl)amino)pyrido[3,4-d]pyridazin-1-yl)phenol] |  |  | EC50 (Human NLRP3 [3]): 481 nM; solubility (Solubility (Test E)): 68 µM (≈ 23.1 µg/mL)
11 | Oc1cccc(C(F)(F)F)c1-c1nnc(N[C@@H]2CCC[C@H](O)C2)c2cnccc12 (racemic) [Example 50, 2-[4-[[(1R,3S)-3-hydroxycyclohexyl]amino]pyrido[3,4-d]pyridazin-1-yl]-3-(trifluoromethyl)phenol] |  |  | Test F Solubility [2]: >80.9 µg/mL
12 | Oc1cc(F)ccc1-c1nnc(N[C@@H]2CCCC[C@H]2O)c2ccncc12 [Example 78, 5-fluoro-2-(1-(((1R,2R)-2-hydroxycyclohexyl)amino)pyrido[3,4-d]pyridazin-4-yl)phenol] |  |  | EC50 (Human NLRP3 [3]): 1140 nM; solubility (Solubility (Test E)): 958 µM (≈ 340 µg/mL)
13 | C[C@]1(O)C[C@@H](Nc2nnc(-c3ccc(Cl)cc3O)c3ccncc23)C1 [Example 68, 5-chloro-2-(4-(((1s,3s)-3-hydroxy-3-methylcyclobutyl)amino)pyrido[3,4-d]pyridazin-1-yl)phenol] |  |  | EC50 (Human NLRP3 [3]): 19 nM; IC50 (Human NLRP3 [1]): 2 nM; solubility (Solubility (Test E)): 44 µM (≈ 15.7 µg/mL)
14 | Oc1cc(C(F)(F)F)ccc1-c1nnc(N[C@@H]2CCC[C@H](O)C2)c2ccncc12 [Example 43, 2-[1-[[(1R,3S)-3-hydroxycyclohexyl]amino]pyrido[3,4-d]pyridazin-4-yl]-5-(trifluoromethyl)phenol] |  | 37.3 (≈ 92.2 µM) | 
15 | Oc1cccc(C(F)(F)F)c1-c1nnc(N[C@@H]2CCC[C@H](O)C2)c2cnccc12 (single isomer, unassigned) [Example 49] | 405 | > 80.9 | 
16 | OC[C@@H](O)CNc1nnc(-c2cc(F)c(F)cc2O)c2ccccc12 [Example 3, (2S)-3-[[4-(4,5-difluoro-2-hydroxy-phenyl)phthalazin-1-yl]amino]propane-1,2-diol] | 474 | 68.6 (≈ 198 µM) | 
17 | OC[C@@H](O)CNc1nnc(-c2c(O)cc(F)cc2F)c2ccccc12 [Example 8, (2S)-3-[[4-(2,4-difluoro-6-hydroxy-phenyl)phthalazin-1-yl]amino]propane-1,2-diol] | 159 | 11.8 (≈ 34 µM) | 
18 | Oc1cccc(F)c1-c1nnc(N[C@@H]2CCCC[C@H]2O)c2ccncc12 [Example 77, 3-fluoro-2-(1-(((1R,2R)-2-hydroxycyclohexyl)amino)pyrido[3,4-d]pyridazin-4-yl)phenol] |  |  | EC50 (Human NLRP3 [3]): 2930 nM
19 | Oc1cc(C(F)(F)F)ccc1-c1nnc(N[C@H]2CCC[C@H](O)C2)c2ccccc12 (single isomer, unassigned) [Example 29] |  |  | Test F Solubility [2]: 16.1 µg/mL
20 | OC[C@@H](O)CNc1nnc(-c2ccc(C(F)(F)F)cc2O)c2ccccc12 [Example 1, (2S)-3-[[4-[2-hydroxy-4-(trifluoromethyl)phenyl]phthalazin-1-yl]amino]propane-1,2-diol] |  | 50 (≈ 132 µM) | 
21 | OC[C@H](O)CNc1nnc(-c2ccc(C(F)(F)F)cc2O)c2ccccc12 [Example 12, (2R)-3-[[4-[2-hydroxy-4-(trifluoromethyl)phenyl]phthalazin-1-yl]amino]propane-1,2-diol] |  | 36.4 (≈ 96 µM) | 
22 | OC[C@@H](O)CNc1nnc(-c2c(O)cccc2F)c2ccccc12 [Example 4, (2S)-3-[[4-(2-fluoro-6-hydroxy-phenyl)phthalazin-1-yl]amino]propane-1,2-diol] | > 1000 | 23.2 (≈ 70.4 µM) | 

Now from value to compound, other results behind:

Row | IC50 (Human NLRP3 [1]; [4]) [nM] | solubility [2] [µg/mL] | Compound | other results
23 | 4 | > 72.9 | CCc1ccc(-c2nnc(N[C@@H]3CCC[C@H](O)C3)c3cnccc23)c(O)c1 [Example 51, 5-ethyl-2-[4-[[(1R,3S)-3-hydroxycyclohexyl]amino]pyrido[3,4-d]pyridazin-1-yl]phenol] | 
24 | 27 | > 78.1 | C[C@]1(O)C[C@H](Nc2nnc(-c3ccc(C(F)(F)F)cc3O)c3ccncc23)C1 [Example 84, 2-(4-(((1r,3r)-3-hydroxy-3-methylcyclobutyl)amino)pyrido[3,4-d]pyridazin-1-yl)-5-(trifluoromethyl)phenol] | EC50 (Human NLRP3 [3]): 88 nM; solubility (Solubility (Test E)): 20 µM (≈ 7.81 µg/mL)
25 | 10 | 0.5 (≈ 1.19 µM) | Cc1ccc2c(-c3ccc(C(F)(F)F)cc3O)nnc(N[C@@H]3CCC[C@H](O)C3)c2n1 [Example 91, 2-[8-[[(1R,3S)-3-hydroxycyclohexyl]amino]-2-methyl-pyrido[2,3-d]pyridazin-5-yl]-5-(trifluoromethyl)phenol] | 
26 |  | 0.8 (≈ 1.97 µM) | C[C@]1(O)C[C@@H](Nc2nnc(-c3ccc(OC(F)(F)F)cc3O)c3ccncc23)C1 [Example 63, 2-(4-(((1s,3s)-3-hydroxy-3-methylcyclobutyl)amino)pyrido[3,4-d]pyridazin-1-yl)-5-(trifluoromethoxy)phenol] | IC50 (Human NLRP3 [1]): 8 nM
27 |  | 3.6 (≈ 10 µM) | C[C@]1(O)C[C@@H](Nc2nnc(-c3cc(F)c(F)cc3O)c3ccncc23)C1 [Example 66, 4,5-difluoro-2-(4-(((1s,3s)-3-hydroxy-3-methylcyclobutyl)amino)pyrido[3,4-d]pyridazin-1-yl)phenol] | IC50 (Human NLRP3 [1]): 570 nM
28 | 14 | 21.9 (≈ 63.5 µM) | CC(C)(O)CNc1nnc(-c2ccc(Cl)cc2O)c2ccncc12 [Example 71, 5-chloro-2-[4-[(2-hydroxy-2-methyl-propyl)amino]pyrido[3,4-d]pyridazin-1-yl]phenol] | 
29 | 22 | 5.8 (≈ 14.7 µM) | CC(C)(O)CNc1nnc(-c2ccc(OC(F)(F)F)cc2O)c2ccncc12 [Example 72, 2-[4-[(2-hydroxy-2-methyl-propyl)amino]pyrido[3,4-d]pyridazin-1-yl]-5-(trifluoromethoxy)phenol] | 
30 | 47 |  | Oc1cccc(C(F)(F)F)c1-c1nnc(N[C@@H]2CCC[C@H](O)C2)c2cnccc12 (single isomer, unassigned) [Example 50] | 
31 |  | 9.4 (≈ 23.2 µM) | Oc1cc(C(F)(F)F)ccc1-c1nnc(N[C@H]2CCC[C@@H](O)C2)c2cnccc12 [Example 82, 2-[4-[[(1S,3R)-3-hydroxycyclohexyl]amino]pyrido[3,4-d]pyridazin-1-yl]-5-(trifluoromethyl)phenol] | solubility (Solubility (Test E)): 34 µM (≈ 13.7 µg/mL)
32 |  | > 68.1 | C[C@]1(O)C[C@@H](Nc2nnc(-c3c(O)cccc3F)c3cccnc23)C1 [Example 90, 3-fluoro-2-(8-(((1s,3s)-3-hydroxy-3-methylcyclobutyl)amino)pyrido[2,3-d]pyridazin-5-yl)phenol] | IC50 (Human NLRP3 [1]): 551 nM
33 |  | > 68.1 | C[C@]1(O)C[C@@H](Nc2nnc(-c3c(O)cccc3F)c3ccncc23)C1 [Example 64, 3-fluoro-2-(4-(((1s,3s)-3-hydroxy-3-methylcyclobutyl)amino)pyrido[3,4-d]pyridazin-1-yl)phenol] | IC50 (Human NLRP3 [1]): 111 nM
34 |  | 22.1 (≈ 54.6 µM) | Oc1cc(C(F)(F)F)ccc1-c1nnc(N[C@@H]2CCC[C@H](O)C2)c2ncccc12 [Example 89, 2-[8-[[(1R,3S)-3-hydroxycyclohexyl]amino]pyrido[2,3-d]pyridazin-5-yl]-5-(trifluoromethyl)phenol] | 
35 |  | > 76.1 | OC[C@@H](O)CNc1nnc(-c2ccc(C(F)(F)F)cc2O)c2ccncc12 [Example 88, (2S)-3-[[1-[2-hydroxy-4-(trifluoromethyl)phenyl]pyrido[3,4-d]pyridazin-4-yl]amino]propane-1,2-diol] | 
